Results: US20240016784A1, “Y BOX BINDING PROTEIN 1 INHIBITORS” (Oregon Health & Science University, priority 2020, published 2024)

Columns and labels:
[1] = tested on: OVCAR8, SKOV3, and ID8 cells; assay: Cell cycle analysis (propidium iodide, flow cytometry); type: cell-based
Procedure: To determine whether proliferation inhibition was the dominant factor driving the reduction in OC viability seen with AzP treatment, we used propidium iodide and annexin-FITC stains with flow cytometry to measure the distribution of cell cycle phases after treatment. […] Furthermore, in the Boyden chamber assay for cell migration, SU093 inhibited cell migration by 40-46% (1 μM, P<0.05) in different OC cell lines.
Cell cycle analysis: 30,000 OC cells were plated in each well of 12 well plates and incubated for 24 h. […] Both live and dead cells were collected via trypsinization and cell pellets were fixed with 70% ethanol. Fixed cells were stained using propidium iodide (PI) cocktail (80 μg/mL RNase A and 50 μg/mL PI in saponin-EDTA solution) and incubated at 4° C. overnight. Each sample was analyzed using a Guava® easyCyte™ Flow Cytometer (Millipore, Burlington, MA). FlowJo software calculated the % cells in each cell cycle phase.
FIG. 1A) Lead optimization of SU093 to obtain SU056. FIG. 1B) IC50 values of SU093 and SU056 on various ovarian cancer cells. Clonogenic survival of OC cells treated with SU093 or SU056. […] FIG. 1C) Representative colony formation from respective wells. FIG. 1D) Number of colonies formed after SU093 and SU056 treatment. […] FIG. 1F) Cell cycle distribution of propidium iodide (PI)-stained OVCAR8, SKOV3, and ID8 cells. […] FIG. 1G) Effects of SU093 and SU056 on apoptotic cell death analyzed by Annexin-FITC staining. […] FIG. 1H) Cell migration assay.

ID-8 tumor xenograft = assay: ID8 syngeneic ovarian tumor model, tumor growth and lung metastasis; type: in vivo, C57BL/6 mice
Procedure: These promising results led us to test SU093 and SU056 in vivo. C57BL/6 mice were implanted with 2×10^6 firefly luciferase (luc+)-expressing ID-8 syngeneic ovarian cancer cells subcutaneously. Once the tumors reached 100 mm^3 in size, we began daily intraperitoneal treatment with SU093 and SU056 at 20 mg/kg (vehicle control 30% PEG-300 in saline). Tumor growth was monitored via bioluminescence imaging (IVIS).
Due to prior observation of a significant reduction in the migratory ability of OC cells treated with the two drugs (FIG. 1H), we also measured the effect of drug treatment on ovarian cancer metastases. At the end of above experiment, lungs were fixed and metastatic foci were counted under the dissecting microscope followed by H&E staining.
In vivo xenograft model and drug efficacy study: All animal experiments were reviewed and approved by the Animal Care and Use Committee of Stanford University, CA, USA. Luciferase tagged ID8 (2×10^6) or OVCAR8 (5×10^6) cells were implanted into the right flank of 6-7-week-old female C57BL/6 mice and NOD/SCID mice, respectively. Respective treatment began after tumors grew to 100-200 mm^3 diameters. The ID8 syngeneic mice model was treated with a vehicle (30% PEG-300 in saline), 20 mg/kg SU093, and 20 mg/kg SU056 intraperitoneally (IP) daily for 42 days. At the end of treatment, blood was collected from each mouse and analyzed for liver toxicity parameters, including Alanine Aminotransferase (ALT), Aspartate Aminotransferase (AST), and Alkaline Phosphatase (ALKP). OVCAR8 xenograft mice model was treated with vehicle (30% PEG-300 in saline), 5 mg/kg paclitaxel (once a week), 10 mg/kg SU056 (daily), a combination of paclitaxel (5 mg/kg, once a week) and SU056 (10 mg/kg, daily) for 4 weeks. Mice from both studies were euthanized, the tumor and different organs were collected and fixed in neutral buffered formalin and further processed for immunohistochemical analysis.
FIGS. 2A-2F. SU093 and SU056 inhibit mice ovarian ID-8 tumor xenograft growth in C57BL/6 mice. Mice were subcutaneously injected with ID-8 cells mixed with Matrigel in 1:1 ratio and the drug treatment started when tumors reached 100 mm^3. […] FIG. 2B) Tumor volume/mouse as a function of time. […] FIG. 2C) Tumor weight/mouse at the end of the study. […] FIG. 2D) Liver toxicity parameters at the end of 42 days showing no significant difference between control, SU093, and SU056. FIGS. 2E-2F) Lung metastasis assay. FIG. 2E) H&E staining of the lung (red arrow indicates the metastasis from ID8 xenograft). Scale bar, 250 μm. FIG. 2F) No. of lung metastatic nodules.

4T1 tumor xenograft = assay: 4T1 tumor xenograft; type: in vivo, BALB/c mice; conditions: SU056 50 mg/kg, oral gavage
Procedure: Mice were subcutaneously injected with 4T1 cells and drug treatment started after three day of implantation. Mice were given either vehicle (40% PEG in saline) or SU056 (50 mg/kg) through oral route using oral gavage. FIG. 14A) Tumor volume (4T1) as a function of time. FIG. 14B) Tumor weight (4T1) at the end of the study. FIG. 14C) Body weight (4T1) as a function of time. FIG. 14D) Representative images of tumor (4T1) at the end of study. Combination of Paclitaxel and SU056 in 4T1 xenograft model. FIG. 14E) Tumor volume (4T1) as a function of time. FIG. 14F) Tumor weight (4T1) at the end of the study. FIG. 14G) Body weight (4T1) as a function of time.

O=C1OCC2=C1C(c1cccc(F)c1)c1cc3c(cc1N2CCO)OCO3 (stereo not drawn) [SU056, 9-(3-fluorophenyl)-5-(2-hydroxyethyl)-6,9-dihydro-[1,3]dioxolo[4,5-g]furo[3,4-b]quinolin-8(5H)-one]
cell cycle distribution ([1]; 12 h treatment, PI-stained OVCAR8, SKOV3, ID8): G1 phase arrest
cell cycle arrest, comparison of SU056 with SU093 ([1]; OC lines): greater cell cycle arrest than SU093
reduction in lung metastases (ID-8 tumor xenograft; 20 mg/kg daily IP, 42 days, histological scoring): 3 fold
reduction in tumor weight (ID-8 tumor xenograft; 20 mg/kg daily IP, at 42 days): 2 fold
tumor progression vs vehicle control (ID-8 tumor xenograft; 20 mg/kg daily intraperitoneal, bioluminescence imaging): significantly delay the tumor progression
4T1 tumor xenograft growth (4T1 tumor xenograft): inhibit 4T1 tumor xenograft
